Reference: BindingDB's records for doi:10.1016/j.bmc.2015.01.060 (University of Florida, 2015)

How the values were obtained:
[1] = molecular target: 5-hydroxytryptamine receptor 2B (Homo sapiens, UniProt P41595); assay: Displacement of [3H]Mesulergine from human 5-HT2B receptor expressed in HEK293 cells by scintillation counting analysis
[2] = molecular target: T1, 5-hydroxytryptamine receptor 2C (Homo sapiens, UniProt P28335); assay: Displacement of [3H]Mesulergine from human 5-HT2C-INI receptor expressed in HEK293 cells by scintillation counting analysis
T1 sequence (P28335 whole entry): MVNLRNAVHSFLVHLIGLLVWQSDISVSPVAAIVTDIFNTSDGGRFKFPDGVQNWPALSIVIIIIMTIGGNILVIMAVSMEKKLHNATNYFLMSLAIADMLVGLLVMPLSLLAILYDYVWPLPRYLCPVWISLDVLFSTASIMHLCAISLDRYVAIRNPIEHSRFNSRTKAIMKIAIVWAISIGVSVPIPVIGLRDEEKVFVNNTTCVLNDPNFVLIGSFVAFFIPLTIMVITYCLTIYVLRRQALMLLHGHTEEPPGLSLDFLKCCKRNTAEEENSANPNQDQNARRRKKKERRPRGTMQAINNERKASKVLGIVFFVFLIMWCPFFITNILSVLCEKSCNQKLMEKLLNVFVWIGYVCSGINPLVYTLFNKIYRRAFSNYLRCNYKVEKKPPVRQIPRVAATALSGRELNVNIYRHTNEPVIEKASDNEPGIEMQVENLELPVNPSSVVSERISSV

Chain of 5-hydroxytryptamine receptor 2B (P41595 whole entry): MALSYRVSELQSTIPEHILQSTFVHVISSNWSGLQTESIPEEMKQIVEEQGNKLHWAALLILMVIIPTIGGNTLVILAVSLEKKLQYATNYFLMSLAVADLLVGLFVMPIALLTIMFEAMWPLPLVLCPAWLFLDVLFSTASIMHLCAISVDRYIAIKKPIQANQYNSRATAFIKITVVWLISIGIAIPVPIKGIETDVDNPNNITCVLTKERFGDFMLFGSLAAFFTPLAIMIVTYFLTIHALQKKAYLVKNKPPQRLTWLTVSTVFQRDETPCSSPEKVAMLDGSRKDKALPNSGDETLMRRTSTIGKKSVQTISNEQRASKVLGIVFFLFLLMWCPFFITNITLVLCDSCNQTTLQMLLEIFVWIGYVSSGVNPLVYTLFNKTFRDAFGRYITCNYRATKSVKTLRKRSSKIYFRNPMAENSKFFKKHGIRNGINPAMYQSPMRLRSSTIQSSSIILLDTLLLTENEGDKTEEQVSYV

Ki [1]: 4.1 µM
Ki [2]: 1000 nM
SMILES: CN(C)[C@H]1Cc2ccccc2[C@H](c2ccc([N+](=O)[O-])cc2)C1
